How the values were obtained:
Type in all cases: cell-based, human
A549 cells [1] = assay: Tumor cell proliferation assay (Alamar blue reduction); settings: 10 μg/ml, ten days
Method: (§1) FIG. 4 TLR7 and 8 induce survival of lung tumor cells. (A) A549 cells were unstimulated, stimulated with loxoribine (10 μg/ml), Poly U (10 μg/ml), or Gardiquimod(10μg/ml) and incubated with Alamar blue for 10 days. Reduction of Alamar blue was then determined by spectrophotometry at 570 and 600 nm. The percentage of reduced Alamar blue was calculated as described by the manufacturer. A549 cells were unstimulated or stimulated with loxoribine, Poly U, Gardiquimod, etoposide, or cycloheximide for 24 h. (B) The percentage of dead cells was determined by Trypan blue exclusion. (C) The DNA content was measured by IP staining after RNAse A treatment. The percentages indicate the proportion of subdiploid (G0/G1) and […]. Data represent mean values±SD from 3 independent experiments (*p<0.05; ** p<0.01, Student test). (D) A549 cells were cultured for 6 h in the presence of loxoribine, Poly U, or Gardiquimod, and the expression of Bcl-2 was assayed using Taq Man Low Density Array technology. The ΔCT values for Bcl-2 expression were calculated by subtraction of the CT value obtained for the 18S housekeeping gene. The ΔΔCT values were obtained by subtraction of ΔCT values for unstimulated cells from those obtained for stimulated cells. The fold increase (arbitrary unit) was obtained by 2^−ΔΔCT.
Human lung cancer cell lines were seeded in 96-well plates (800 cells per well) and left unstimulated or were stimulated with loxoribine, Poly U, or Gardiquimod. The proliferation assay was performed with Alamar blue (AbD Serotec, Cergy Pontoise, France) according to the manufacturer's instructions. Briefly, cells were seeded and stimulated with TLR ligands in 100 μl of medium, and 10 μl of Alamar Blue was added. The optical density in each well was determined at 540 nm and 570 nm after 10 days of culture, and the percentage of reduced Alamar blue was determined. The percentage of reduced Alamar blue in unstimulated cells was determined as 100%, and the percentages of the stimulated cells were determined relative to this value.

A549 and SK-MES cells = assay: Transcriptomic analysis of 182 genes (Taq Man Low Density Array); settings: 6 h stimulation; versus unstimulated cells
Method: FIG. 6 TLR7 and 8 induce regulation of gene transcription. A549 or SK-MES cells were cultured for 6 h in the presence of loxoribine, Poly U, or Gardiquimod. Total RNA was extracted and analyzed for the expression of 182 genes using Taq Man Low Density Array technology. All genes with a value greater than 35 (CT) were excluded from the analysis. The ΔCT values for the expression of all genes were calculated by subtraction of the CT value of the 18S housekeeping gene. The ΔΔCT values were obtained by subtraction of the ΔCT values for unstimulated cells from those obtained for TLR7- or 8-stimulated cells. The fold increase (arbitrary unit) was obtained by 2^−ΔΔCT. Values were then clustered using the Genesis Software.
Total RNA was extracted from A549 or SK-MES cells stimulated with loxoribine, Poly U, or Gardiquimod for 6 h or from purified human lung cancer cells using the RNeasy isolation-kit RNA (Qiagen, Courtaboeuf, France). The integrity and the quantity of the RNA were evaluated with a bioanalyzer-2100 (Agilent Technologies). All samples were assessed for gene expression analysis using the Taq Man Low-Density Array angiogenesis and immune panel (Applied Biosystem). The RT-PCR experiments were carried-out according to the manufacturer's instructions (Applied-Biosystems). Quantitative real-time TaqMan-PCR was performed using Low-Density-Arrays and the 7900 robotic real-time PCR-system (Applied-Biosystems). The 18S primers and probes were used as internal controls. Data were analyzed using the SDS Software v2.2 (Applied-Biosystems). The ΔCT values were calculated for each gene by subtraction of the CT value of the 18S housekeeping gene from the CT of the gene of interest. The ΔΔCT values were obtained by subtraction of the ΔCT values for unstimulated cells from the […]. The fold increase (arbitrary unit) was obtained by 2^−ΔΔCT.

A549 cells [2] = assay: Cell cycle analysis (propidium iodide staining); settings: PI staining
Method: as §1
A549 cells were cultured in the presence of loxoribine, Poly U, Gardiquimod, etoposide, or cycloheximide. After 48 h, the cells were harvested, washed in cold PBS, and fixed with 2 ml of 70% cold ethanol in PBS for 2 h at 4° C. After centrifugation, the supernatant was removed and the pellet was rinsed with 0.5% PBS Tween. It was then incubated with […] of RNAse A and 50 μg of propidium iodide in PBS. Propidium iodide staining was determined with a FACScalibur cytometer.

Molecule | increase in reduction of Alamar blue versus unstimulated cells (A549 cells [1]) [%] | genes down-regulated in both SK-MES and A549 cells (A549 and SK-MES cells) | genes up-regulated in A549 cells, but down-regulated in SK-MES cells (A549 and SK-MES cells) | genes up-regulated in SK-MES, but down-regulated in A549 cells (A549 and SK-MES cells) | genes up-regulated in both SK-MES and A549 cells (A549 and SK-MES cells) | proportion of cells in G0/G1 or G2/M phases versus unstimulated cells (A549 cells [2])
C=CCn1c(=O)n([C@@H]2O[C@H](CO)[C@@H](O)[C@H]2O)c2nc(N)[nH]c(=O)c21 [loxoribine, 7-allyl-7,8-dihydro-8-oxo-guanosine] | 20 | Prolactin (PRL), CD80, Fibronectin-1 (FN-1), A Disintegrin And Metalloproteinase with ThromboSpondin motif 1 (ADAMTS1), and Serpin Peptidase Inhibitor Clade C1 (SERPINC1) | Angiopoietin like 3 (ANGPTL3), Serpin Peptidase Inhibitor Clade F1 (SERPINF1), and Angiopoietin 1 (ANGPT1) | ANGPTL1, Platelet Factor 4 (PF4), and fms related tyrosine kinase 4 (FLT4) | Bcl-2, CCR4, and Vasohibin-1 (VASH-1) | did not observe any significant differences
Poly U | 20 | Prolactin (PRL), CD80, Fibronectin-1 (FN-1), A Disintegrin And Metalloproteinase with ThromboSpondin motif 1 (ADAMTS1), and Serpin Peptidase Inhibitor Clade C1 (SERPINC1) | Angiopoietin like 3 (ANGPTL3), Serpin Peptidase Inhibitor Clade F1 (SERPINF1), and Angiopoietin 1 (ANGPT1) | ANGPTL1, Platelet Factor 4 (PF4), and fms related tyrosine kinase 4 (FLT4) | Bcl-2, CCR4, and Vasohibin-1 (VASH-1) | did not observe any significant differences

From US8772243B2, “Methods for predicting the response to anti-cancer treatment with an agonist of TLR7 or an agonist of TLR8” (Inserm (Institut National de la Sante et de la Recherche …, priority 2008, dated 2014)
